# Legend:
# [1] = target: Rhipicephalus appendiculatus rMS-HBP1, His6-tagged, SEQ ID NO: 20 (Rhipicephalus appendiculatus, UniProt O77422); details: ^3H-histamine ~0.3 pmol (11,200 cpm), rMS-HBP1 ~100 pmol, 5 measurements
# [2] = target: T1, Rhipicephalus appendiculatus rFS-HBP1, His6-tagged, expressed in Spodoptera frugiperda Sf21 cells (baculovirus), SEQ ID NO: 16 (Rhipicephalus appendiculatus, UniProt O77420); assay: Histamine binding assay (radiolabelled histamine, PEG precipitation, Scatchard), rFS-HBP1
# T1 construct: Gly-Ile-(His)6 (C); made in house; host or cells: Spodoptera frugiperda Sf21 cells (baculovirus BacPak6)
# Description: (§1) Construction of clones. FS-HBP1, FS-HBP2 and MS-HBP1 were expressed as histidine-tagged proteins (rFS-HBP1, rFS-HBP2 and rMS-HBP1) in Spodoptera frugiperda ovarian cells (Sf21).
# In order to append the His6 tag, the coding region of FS-HBP1 was first amplified using the polymerase chain reaction (PCR). […] The forward primer used was: 5′-[…] (SEQ ID NO:3); the reverse primer was: 5′-[…] (SEQ ID NO:4). The primers were designed so that a SacI site was added upstream of the start codon, whilst the stop codon was replaced by a BamHI site, followed by 6 histidine codons and an SpeI site comprising a TAG stop codon. The PCR product was cut with SacI and SpeI. The latter enzyme creates a compatible overhang with XbaI, enabling the fragment to be ligated between the SacI and XbaI sites of the pAcC129.1 transfer vector (Livingstone and Jones (1989) Nucleic Acids Res. 17:2366), generating the plasmid pACC129.1-FS1.HIS. This plasmid therefore contained the sequence Gly-Ile-(His)6 appended to the carboxy terminus of the FS-HBP1 translation product.
# (§2) The baculovirus expression system was used for expression of the three tagged polypeptides. Spodoptera (Sf21) cells were transfected with the transfer vectors and baculovirus (BacPak6; Clontech). Recombinant virus was amplified as according to Kitts and Possee (1993) BioTechniques 14:810-817). […]
# [3] = target: Rhipicephalus appendiculatus FS-HBP2 (SEQ ID NO: 18) truncated version lacking the 45 N-terminal amino acids, bacterially expressed (Rhipicephalus appendiculatus, UniProt O77421)
# [4] = system: rVABPs; assay: Competition experiment: displacement of 3H-histamine from rVABPs by histamine-like compounds; details: cold histamine, reference amount
# [5] = target: T2, Rhipicephalus appendiculatus rMS-HBP1, His6-tagged, expressed in Spodoptera frugiperda Sf21 cells (baculovirus), SEQ ID NO: 20 (Rhipicephalus appendiculatus, UniProt O77422); assay: Histamine binding assay (radiolabelled histamine, PEG precipitation, Scatchard), rMS-HBP1
# T2 construct: Gln-Ile-(His)6 (C); made in house; host or cells: Spodoptera frugiperda Sf21 cells (baculovirus BacPak6)
# Description: as §1
# (§3) This plasmid pACC129.1-FS1.HIS was also used for expression of histidine-tagged FS-HBP2 and MS-HBP1. The FS-HBP1 cDNA was deleted using SacI and BamHI thus leaving the histidine codons intact. An upstream SacI and a downstream BglII site (BglII and BamHI create compatible overhangs) were added to the FS-HBP2 and MS-HBP1 coding regions by PCR. […] The forward primer, in the case of FS-HBP2 was: 5′-[…] (SEQ ID NO:5); the reverse primer was: 5′-[…] (SEQ ID NO:6). In the case of MS-HBP1 the forward primer was: 5′-[…] (SEQ ID NO:7), and the reverse primer was: 5′-[…] (SEQ ID NO:8).
# (§4) Following PCR, the derived cDNAs were inserted into the vector. A Gln-Ile-(HIS)6 sequence was thus added to the carboxyterminus of the MS-HBP1 translation product, and Ile-(His)6 to the FS-HBP2 translation product.
# as §2, with “14:810-817). The VABPs are clearly secretion products since they are mainly found in the culture medium of transfected cells as well as in saliva.” for “14:810-817).”
# [6] = target: Rhipicephalus appendiculatus FS-HBP2 (SEQ ID NO: 18) truncated version lacking the 28 C-terminal amino acids, bacterially expressed (Rhipicephalus appendiculatus, UniProt O77421)
# [7] = target: T3, Rhipicephalus appendiculatus rFS-HBP2, His6-tagged, expressed in Spodoptera frugiperda Sf21 cells (baculovirus), SEQ ID NO: 18 (Rhipicephalus appendiculatus, UniProt O77421); assay: Histamine binding assay (radiolabelled histamine, PEG precipitation, Scatchard), rFS-HBP2
# T3 construct: Ile-(His)6 (C); made in house; host or cells: Spodoptera frugiperda Sf21 cells (baculovirus BacPak6)
# Description: as §1, §3, §4
# as §2, with “14:810-817). The VABPs are clearly secretion products since they are mainly found in the culture medium of transfected cells as well as in saliva.” for “14:810-817).”
# Rhipicephalus appendiculatus rMS-HBP1, His6-tagged, SEQ ID NO: 20, sequence (O77422 19-200): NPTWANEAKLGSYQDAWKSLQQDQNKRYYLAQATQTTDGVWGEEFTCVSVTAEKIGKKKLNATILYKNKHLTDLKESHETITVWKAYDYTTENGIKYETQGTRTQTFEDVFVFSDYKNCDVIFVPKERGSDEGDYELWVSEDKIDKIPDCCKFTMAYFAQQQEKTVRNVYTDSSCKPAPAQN
# T3 sequence (O77421 20-190, added parts left off): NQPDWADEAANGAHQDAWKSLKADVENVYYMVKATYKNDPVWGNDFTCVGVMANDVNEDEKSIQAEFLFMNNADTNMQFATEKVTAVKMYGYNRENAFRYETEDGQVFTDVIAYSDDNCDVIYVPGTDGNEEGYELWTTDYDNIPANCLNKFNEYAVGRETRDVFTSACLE
# T1 sequence (O77420 19-190, added parts left off): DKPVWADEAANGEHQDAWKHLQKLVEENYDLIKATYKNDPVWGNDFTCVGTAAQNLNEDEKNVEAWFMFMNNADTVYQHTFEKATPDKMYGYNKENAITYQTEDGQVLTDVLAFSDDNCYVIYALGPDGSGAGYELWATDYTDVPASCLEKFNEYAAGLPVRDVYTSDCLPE
# T2 sequence (O77422 19-200, added parts left off): as the sequence (O77422 19-200) above
# Rhipicephalus appendiculatus FS-HBP2 (SEQ ID NO: 18) truncated version lacking the 45 N-terminal amino acids, bacterially expressed, sequence (O77421 65-190): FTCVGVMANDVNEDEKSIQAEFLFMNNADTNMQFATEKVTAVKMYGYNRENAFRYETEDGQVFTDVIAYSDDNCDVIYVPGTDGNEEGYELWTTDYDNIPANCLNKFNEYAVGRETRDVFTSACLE
# Rhipicephalus appendiculatus FS-HBP2 (SEQ ID NO: 18) truncated version lacking the 28 C-terminal amino acids, bacterially expressed, sequence (O77421 20-162): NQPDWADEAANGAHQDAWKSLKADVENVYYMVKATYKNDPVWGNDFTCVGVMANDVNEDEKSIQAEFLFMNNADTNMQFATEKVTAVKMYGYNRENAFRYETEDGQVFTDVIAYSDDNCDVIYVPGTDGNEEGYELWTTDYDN
SMILES,"bound radioligand, without added histamine [1]",Kd [2],binding to histamine [3],displacement of ^3H-histamine from the binding sites [4],Kd [5],binding to histamine [6],Kd [7],"bound radioligand, supplemented with histamine ([1]; plus histamine 0.5 pmol)"
NCCc1c[nH]cn1 [^3H-histamine],"6,840±150 cpm",,,,,,,
NCCc1c[nH]cn1 [histamine],,78 nM,do not bind to histamine at all,more than 95%,1.2 nM,do not bind to histamine at all,1.7 nM,"7,560±110 cpm"

# Source: patent publication US6617312B1, “Vasoactive amine binding molecules” (Oxford Vacs Ltd., priority 1996, dated 2003)
